# Source: US20070225203A1, “Method and Composition for Preventing Multiple Organ Dysfunction Syndrome” (N.V. NUTRICIA, priority 2003, published 2007)
# Columns and labels:
# [1] = biological target: xanthine oxidase (Homo sapiens, UniProt P47989); experiment: Xanthine oxidase inhibition by flavonoids; type: biochemical
# [2] = Oxidative stress, plasma concentrations of malon dialdehyde
# [3] = tested on: HepG2 cells; experiment: GTP concentration in folic acid challenged HepG2 cells; type: cell-based, human
# Description: HepG2 cells, a human hepatocarcinoma cell line, were obtained from ATCC. These were maintained in MEM supplemented with 10% FCS; 1% NEAA; 1% penicillin/streptomycin mixture. Cells were seeded primarily at a density of approximately 1-2×10^6 cells and were split and transferred to new flasks when showing 70-90% confluency. 96-well microtitre plates (ex Micronic, Leylstad, N L.), containing 0.35×10^6 cells per well were incubated for 24 hours at 37° C.; 5% CO2. HepG2's were folic acid challenged by addition of folic acid free media for 1 hour. This folic acid challenged cells were compared with cells that remained at an increasing concentration of folic acid or ribose.
# Nucleotides were measured as described by van Hoorn et al., Analytical Biochemistry (2003), 320, 82-87.
# 1. 6.5 hours incubation of HepG2 cells in either folic acid depleted media or media containing 2.27 μM folic acid
# Sequence of xanthine oxidase (P47989 whole entry, species assumed): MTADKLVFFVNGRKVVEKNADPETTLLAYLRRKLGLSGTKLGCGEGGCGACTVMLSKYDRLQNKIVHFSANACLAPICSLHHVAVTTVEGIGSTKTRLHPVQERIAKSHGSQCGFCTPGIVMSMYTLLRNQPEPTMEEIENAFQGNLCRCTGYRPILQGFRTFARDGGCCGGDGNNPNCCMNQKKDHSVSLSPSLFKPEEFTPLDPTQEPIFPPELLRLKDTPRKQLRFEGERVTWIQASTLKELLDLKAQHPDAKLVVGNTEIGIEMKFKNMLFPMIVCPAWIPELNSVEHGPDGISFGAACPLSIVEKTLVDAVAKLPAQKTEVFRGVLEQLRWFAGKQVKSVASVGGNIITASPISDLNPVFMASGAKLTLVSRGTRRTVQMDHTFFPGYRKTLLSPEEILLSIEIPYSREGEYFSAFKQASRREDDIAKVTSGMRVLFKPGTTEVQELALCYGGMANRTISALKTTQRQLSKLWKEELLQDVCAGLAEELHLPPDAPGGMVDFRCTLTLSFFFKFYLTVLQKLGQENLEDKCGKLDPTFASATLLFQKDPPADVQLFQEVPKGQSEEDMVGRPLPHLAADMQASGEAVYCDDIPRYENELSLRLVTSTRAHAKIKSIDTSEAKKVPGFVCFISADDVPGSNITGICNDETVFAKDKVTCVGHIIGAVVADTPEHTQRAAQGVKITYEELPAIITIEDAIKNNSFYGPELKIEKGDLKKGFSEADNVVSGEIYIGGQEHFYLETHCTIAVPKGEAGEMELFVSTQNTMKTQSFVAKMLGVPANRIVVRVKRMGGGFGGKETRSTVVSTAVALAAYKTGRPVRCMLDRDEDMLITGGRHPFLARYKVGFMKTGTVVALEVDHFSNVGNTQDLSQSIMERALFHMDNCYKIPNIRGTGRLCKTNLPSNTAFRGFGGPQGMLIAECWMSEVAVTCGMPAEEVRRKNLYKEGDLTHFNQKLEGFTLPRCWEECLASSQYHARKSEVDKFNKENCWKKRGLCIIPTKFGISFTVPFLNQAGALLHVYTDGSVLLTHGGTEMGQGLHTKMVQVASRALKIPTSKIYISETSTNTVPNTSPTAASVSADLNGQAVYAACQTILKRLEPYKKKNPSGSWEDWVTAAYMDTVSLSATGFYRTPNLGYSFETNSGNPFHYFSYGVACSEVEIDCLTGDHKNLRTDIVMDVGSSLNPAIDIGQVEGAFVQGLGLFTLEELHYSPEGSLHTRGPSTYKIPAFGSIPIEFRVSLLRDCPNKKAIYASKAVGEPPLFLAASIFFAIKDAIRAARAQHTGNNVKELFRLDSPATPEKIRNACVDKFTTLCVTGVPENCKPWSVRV
Compound,xanthine oxidase inhibition [1],"oxidative stress, plasma concentrations of malon dialdehyde [2]","GTP concentration in HepG2 cells ([3]; single agent vs folic acid challenged cells, folic acid 2.27 μM, 6.5 hours)","GTP concentration in HepG2 cells, ribose on top of folic acid ([3]; combination of ribose with folic acid, FIG. 10)"
O=c1cc(-c2ccc(O)cc2)oc2cc(O)cc(O)c12 [apigenin],good xanthine oxidase inhibitors,inhibit oxidative stress,,
Nc1nc2ncc(CNc3ccc(C(=O)N[C@@H](CCC(=O)O)C(=O)O)cc3)nc2c(=O)[nH]1 [folic acid],,,significantly increased,
O=c1cc(-c2ccc(O)c(O)c2)oc2cc(O)cc(O)c12 [luteolin],good xanthine oxidase inhibitors,inhibit oxidative stress,,
O=c1c(O)c(-c2ccc(O)c(O)c2)oc2cc(O)cc(O)c12 [quercetin],good xanthine oxidase inhibitors,inhibit oxidative stress,,
O=C[C@H](O)[C@H](O)[C@H](O)CO [ribose],,,,additive effect
